Test results taken from publication PMC9104152, “Phosphoproteomics Unravel HBV Triggered Rewiring of Host Phosphosignaling Events” (International Journal of Molecular Sciences, 2022).

Experiments:
HepG2-NTCP cells = assay: Cytotoxicity assay (Cell-titer-GLO Luminescent Cell Viability Assay); assay type: cell-based, human
Description: (§1) The IC50 of kinase inhibitors was determined using the Cell-titer-GLO Luminescent Cell Viability Assay kit (Promega, Madison, WI, USA) according to the recommendations from the manufacturer. Briefly, 10,000 HepG2-NTCP cells were seeded into a 96-well plate before treatment with various kinase inhibitor concentrations. Cell viability was assayed at 24 h post-treatment.

[1] = tested on: HBV infection in HepG2-NTCP cells; assay: HBV pgRNA level by real-time qPCR in kinase inhibitor treated HBV infected HepG2-NTCP; assay type: cell-based, Hepatitis B virus; settings: for HBV pgRNA Fold change (Treated/DMSO) / effect on pgRNA level (in words): 1 µM; for effect on pgRNA level (in words): both four dpi and seven dpi
Description: (§2) HBV were generated from a stable transfected hepablastoma cell line (Hep38.7) that expresses HBV as described previously. Briefly, Hep38.7 (tet-off) cells were induced to produce HBV particles through tetracycline withdrawal. Twelve days after tetracycline removal, culture media containing HBV were harvested and filtered through a 0.22 µm polyethersulfone (PES) membrane filter (Corning, New York, NY, USA). The virus supernatant was then concentrated using a heparin column and eluted with high salt, followed by overnight dialysis in phosphate-buffered saline (PBS). Real-time quantitative PCR was used to quantify the genome copy number of the HBV DNA. For infection, HepG2-NTCP cells at 70% confluence 1-day post-seeding were first treated with synchronisation medium consisting of complete medium with 3% DMSO and 500 µM L-Mimosin for 24 h. the cells were then incubated for 30 min with complete medium containing 800 µM of EGTA at 37 °C in a humidified 5% CO2 incubator. After the removal of EGTA-containing medium, the cells were infected with HBV at a multiplicity of infection (MOI) of 3000 in the presence of 4% PEG 8000 and 2.5% DMSO in DMEM/F12 medium supplemented with 2% FBS for 24 h. For the mock infection, cells were incubated for 24-hour in 4% PEG 8000, 2.5% DMSO in DMEM/F12 medium supplemented with 2% FBS. Upon virus removal followed by washing with PBS four times, HBV-infected cells were cultured in post-infection medium consisting of DMEM/F12 medium with 2% FBS and 1% DMSO. The post-infection medium was replaced at four days post-infection (dpi) and infected cells were harvested at day seven dpi. For phosphoproteome analysis, five biological replicates each of mock and HBV-infected HepG2-NTCP were used.
(§3) Total RNA was extracted using the RNeasy Mini Kit (Qiagen, Hilden, Germany) and digested with DNase according to the manufacturer’s protocol. For cDNA synthesis, 250–400 ng of total RNA was reverse transcribed with the iScript cDNA Synthesis Kit (Bio-Rad, Hercules, CA, USA) following the manufacturer’s protocol. cDNA was adjusted to 5 ng/µL using nuclease-free water and 2 μL of cDNA per reaction was used for qPCR analysis. Total DNA was extracted from the cells using the DNeasy Blood and Tissue Kit (Qiagen, Hilden, Germany) according to the manufacturer’s protocol.
To determine pgRNA level after HBV infection, HBV pgRNA was quantified by real-time qPCR using two HBV-specific primers: pgRNA-Forward, 5′-[…]-3′, and pgRNA-Reverse, 5′-[…]-3′ [49]. The housekeeping gene, GAPDH, was amplified using GAPDH forward primer 5′-[…]-3′ and GAPDH reverse primer 5′-[…]-3′. The relative fold change of pgRNA between conditions was determined using the ΔΔct method. Real-time qPCR was performed with iTaq Universal SYBR Green Supermix (Bio-Rad, Hercules, CA, USA). To determine the copy number of intracellular cccDNA, a probe-based qPCR approach was used. cccDNA was amplified using cccDNA forward primer 5′-[…]-3′ and cccDNA reverse primer 5′-[…]-3′. The Taqman probe 56, FAM/[…]/ZEN/[…]/3IABkFQ was used. The cccDNA copy number was determined using a standard curve approach with a 10× serial-diluted cccDNA template, starting from 10ng (Standard rang 1 fg to 1 ng). The reaction was carried out using the Luna Univeral Probe qPCR mix (NEB, Ipswich, MA, USA). To determine the level of HBeAg secretion, the HBeAg CLIA kit (Autobio diagnostic, Zhengzhou, China) was used. This assay was performed on 50 µL of medium harvested at four or seven dpi. All experiments were performed in triplicates and repeated twice for two additional biological replicates. The p-value was calculated using Student’s t-test (two-tailed, * p-value < 0.05, ** p-value < 0.01).
HBV infection on HepG2-NTCP was carried out as described earlier. At one dpi, the kinase inhibitors (Table 1) were added to the post-infection medium after the washing and removal of viruses containing infection medium. […]

[2] = tested on: HBV infection in HepG2-NTCP cells; assay: Intracellular cccDNA by probe-based qPCR in kinase inhibitor treated HBV infected HepG2-NTCP; assay type: cell-based; settings: 1 µM
Description: as §2
as §3, with “Total DNA was extracted from the cells using the DNeasy Blood and Tissue Kit (Qiagen, Hilden, Germany) according to the manufacturer’s protocol.” left out
To determine pgRNA level after HBV infection, HBV pgRNA was quantified by real-time qPCR using two HBV-specific primers: pgRNA-Forward, 5′-[…]-3′, and pgRNA-Reverse, 5′-[…]-3′ [49]. […] The relative fold change of pgRNA between conditions was determined using the ΔΔct method. […] The cccDNA copy number was determined using a standard curve approach with a 10× serial-diluted cccDNA template, starting from 10ng (Standard rang 1 fg to 1 ng). […] The p-value was calculated using Student’s t-test (two-tailed, * p-value < 0.05, ** p-value < 0.01). […]

[3] = tested on: HBV infection in HepG2-NTCP cells; assay: HBeAg secretion (HBeAg CLIA kit) in kinase inhibitor treated HBV infected HepG2-NTCP; assay type: cell-based; settings: 1 µM
Description: as §2
To determine pgRNA level after HBV infection, HBV pgRNA was quantified by real-time qPCR using two HBV-specific primers: pgRNA-Forward, 5′-[…]-3′, and pgRNA-Reverse, 5′-[…]-3′ [49]. The housekeeping gene, GAPDH, was amplified using GAPDH forward primer 5′-[…]-3′ and GAPDH reverse primer 5′-[…]-3′. The relative fold change of pgRNA between conditions was determined using the ΔΔct method. Real-time qPCR was performed with iTaq Universal SYBR Green Supermix (Bio-Rad, Hercules, CA, USA). To determine the copy number of intracellular cccDNA, a probe-based qPCR approach was used. cccDNA was amplified using cccDNA forward primer 5′-[…]-3′ and cccDNA reverse primer 5′-[…]-3′. The Taqman probe 56, FAM/[…]/ZEN/[…]/3IABkFQ was used. The cccDNA copy number was determined using a standard curve approach with a 10× serial-diluted cccDNA template, starting from 10ng (Standard rang 1 fg to 1 ng). […] The p-value was calculated using Student’s t-test (two-tailed, * p-value < 0.05, ** p-value < 0.01). […]

[4] = Cytotoxicity assay (Cell-titer-GLO Luminescent Cell Viability Assay); assay type: cell-based, human; settings: human, HepG2-NTCP cells; HepG2-NTCP, cell viability 24 h post-treatment
Description: as §1

CLKs = settings: target CLKs; reported value, no reference given; cited from earlier work
CDK2 = settings: target CDK2; reported value, no reference given; cited from earlier work
CDK5 = settings: target CDK5; reported value, no reference given; cited from earlier work
CDK1 = settings: target CDK1; reported value, no reference given; cited from earlier work

## CN(C)c1nc2c(Br)c(Br)c(Br)c(Br)c2[nH]1 [DMAT]
HepG2-NTCP cells
  IC50: > 500 µM
[1]; 10 µM, both four and seven dpi
  effect on pgRNA transcription (in words): reduction of pgRNA transcription

## Cn1cc(-c2ccc3occ(-c4ccccc4-c4ccccc4)c3n2)cn1 [MU140]
[1]; 4dpi
  HBV pgRNA Fold change (Treated/DMSO): 1.014
[1]; 7dpi
  HBV pgRNA Fold change (Treated/DMSO): 1.114
[1]
  effect on pgRNA level (in words): no such reduction
[2]; 4dpi
  Intracellular cccDNA Fold change (Treated/DMSO): 0.894
[2]; 7dpi
  Intracellular cccDNA Fold change (Treated/DMSO): 0.930
[3]; 4dpi
  HBeAg Titer Fold change (Treated/DMSO): 0.904
[3]; 7dpi
  HBeAg Titer Fold change (Treated/DMSO): 0.993

## Cn1cc(-c2ccc3occ(-c4cccc(-c5ccncc5)c4)c3n2)cn1 [MU1210]
[4]
  IC50 at 24 h: 16.7 µM
[1]; 4dpi
  HBV pgRNA Fold change (Treated/DMSO): 0.406
[1]; 7dpi
  HBV pgRNA Fold change (Treated/DMSO): 0.709
[1]
  effect on pgRNA level (in words): reduction in the pgRNA level
[2]; 4dpi
  Intracellular cccDNA Fold change (Treated/DMSO): 0.678
[2]; 7dpi
  Intracellular cccDNA Fold change (Treated/DMSO): 0.479
[3]; 4dpi
  HBeAg Titer Fold change (Treated/DMSO): 0.415
[3]; 7dpi
  HBeAg Titer Fold change (Treated/DMSO): 0.105
CLKs
  Ki: 0.023 µM

## Nc1cc(Nc2ccc(S(N)(=O)=O)cc2)ncn1 [PNU112455A11]
HepG2-NTCP cells
  IC50: > 500 µM
CDK2
  Ki: 3.2 µM
CDK5
  Ki: 3.6 µM

## O=C1NC(=NCc2cccs2)S/C1=C\c1ccc2ncccc2c1 [RO-3306]
CDK1
  Ki: 0.035 µM
